In patent publication US10450327B2, “Epidithiodioxopiperazine compound or its derivatives, and the use thereof” (priority 2011, dated 2019):

Columns and labels:
[1] = tested on: balloon-injured rat carotid artery; test: Balloon-injury model of rat carotid artery; type: in vivo
Experimental: Animal experiments were performed in compliance with the guidelines of Institutional Animal Care and Use Committee (IACUC) of the Ewha Womans University. Balloon injury was created using an infiltrated 2 F Fogarty balloon catheter in the left common carotid artery as follows: after the ten-week-old male Sprague-Dawley rats were anaesthetized by isoflurane gas (N2O:O2/70%:30%) inhalation, the left external carotid artery was exposed, and its branches were electrocoagulated. A catheter was pushed 1 cm in through the transverse arteriotomy of the external carotid artery, and the endothelial denudation was achieved by three passes along the common carotid artery. After the catheter was removed, the punched area was sealed and the clapped common carotid artery was opened for resuming the blood flow. Unless otherwise stated, the rats were recovered in a cage for 10 days, and subjected to histological and immunological analyses.
Rats were anesthetized, and the common carotid artery was excised after transcardiac perfusion-fixation with a heparinized saline solution containing 3.7% formaldehyde. The vessels were paraffin embedded and sectioned using a rotary microtome (Leica RM2255). Two serial tissue sections (4 μm in thickness) were obtained from the middle area of common carotid arteries, and stained with haematoxylin and eosin (HE). The luminal, internal elastic laminal, and external elastic laminal areas were measured using NIH Image v1.62. The intimal and medial areas were determined by subtracting the luminal area from the internal elastic area and subtracting the internal elastic area from the external elastic area. The values from the two serial sections for each rat were averaged for analysis.
For the in vivo injection of siRNA, a siRNA mixture specific to rat PrxII (200 nM) was premixed with a siPORT™ NeoFX™ reagent according to the instructions of the manufacturer (Ambion). Immediately after the balloon injury, the siRNA-injected mixture (200 μL) was injected through a catheter after briefly washed with Opti-MEM. After the incubation for 15 minutes, the blood flow was resumed. A siGLO-Red (Dharmacon), which is fluorescent dye-conjugated control siRNA, was used for optimizing in vivo injection efficiency. Similarly, the ETP compound (200 nM in DMSO) was injected through a catheter and incubated for 30 minutes.
Immunohistochemistry for the overoxidized 2-Cys Prxs was performed on the paraffin sections using an anti-Prx-SO2/3 antibody (1:1000 dilution). Briefly, the sections were de-waxed in xylene and rehydrated in ethanol, and subsequently the antigen retrieval was performed by boiling in a citric buffer solution (pH 6.0). After that, the sections were incubated with a primary antibody for 48 hours at 4° C. After washing three times with a phosphatebuffered saline solution, the sections were incubated with a peroxidase-conjugated secondary antibody and stained with a 3′,3′-diaminobenzidine (DAB) substrate solution. For negative staining, the Prx-502/3 antibody was blocked with the corresponding antigenic peptide (DFTFVC(SO2/3)PTEI). For indirect immunofluorescence staining, the paraffin sections were blocked with 5% normal rabbit serum (Vector Laboratories) in PBST (a PBS solution of 0.3% Triton X-100) for 1 hour at room temperature. The sections were then incubated overnight at 4° C. with the […] against rat smooth muscle α-actin (1:300 dilution) and rat CD31 (PECAM-1, 1:200 dilution). The nuclei were labeled with DAPI. After several PBST washes, the samples were incubated for 2 hours at room temperature with Alexa Fluor 568-conjugated donkey anti-mouse and Alexa Fluor 488-conjugated donkey anti-rabbit IgG antibodies. The fluorescence images were recorded on three random fields per tissue section at a screen magnification of 100× using a LSM 510 Meta confocal microscope equipped with argon and helium-neon lasers.
The paraffin sections were incubated for 10 minutes in PBS containing 0.1% Triton X-100. […]

[2] = tested on: HAECs; type: cell-based, human; conditions: up to 50 nM (100 nM for A4, A7, A9)
Experimental: For cell proliferation assay, HAECs were divided at a concentration of 4000 cells/well in a final volume of 100 μl onto a 96-well plate including a siRNA-transfection reagent mixture. After siRNA-transfected for 24 hours, the cells were serum-starved for 18 hours, and then placed in an EBM-2 basal medium supplemented with VEGF-A165 (25 ng/ml, Cat no. 293-VE, R&D systems) for additional 24 hours. The extent of cell proliferation was measured using a WST-1 cell proliferation assay kit (Roche Diagnostics, USA), and the number of cells was expressed as absorbance at 450 nm, which was averaged from 3 wells after subtracting the turbidity at 600 nm.
The cell migration assay was performed in a 24-well Transwell culture chamber (Costar; 8-μm pore size). The bottom of the filter was coated with gelatin B (1 mg/ml) and air-dried for 1 hour. HAECs (6×10^3) were added to upper chambers including siRNA-transfection complexes. After 24 hours, the siRNA-transfected HAECs were serum-starved overnight. A solution of VEGF-A (25 ng/ml) was prepared in a basal medium including 0.5% bovine serum albumin (BSA), and added to bottom chambers. The upper chamber wells were each filled with a basal medium including 0.5% BSA. The Transwell chamber was incubated for 8 hours under the condition of 37° C./5% carbon dioxide. After the incubation, the non-migrated cells at the top of the filter were removed, and the cells that migrated onto the bottom of filter were fixed and stained with 0.6% hematoxylin and 0.5% eosin. The stained cells were photographed and counted. The number of migrating cells was averaged from 3 wells.

[3] = tested on: SK-MEL-5 (SK5) cells; test: Melanoma proliferation and migration assay, SK5; type: cell-based, human; conditions: 100 nM, 1 hour pretreatment
Experimental: The extent of cell proliferation was measured using a WST-1 cell proliferation assay kit (Roche Diagnostics, USA) according to the protocol of the manufacturer. The number of cells was expressed as an absorbance value at 450 nm averaged from 3 wells after subtracting the turbidity at 600 nm. The chemotactic transmigration assay was performed in a 24-well Transwell culture chamber (Costar; polycarbonate membrane insert with 8-μm pore size). The bottom of the insert was coated with gelatin B (1 mg/ml) and air-dried for 1 hour. Retroviruses or transfection complexes were treated to melanoma cells (6×10^3). After 24 hours, the infected or transfected melanoma cells were serum-starved for 18 hours. A 20% FBS solution was added to bottom chambers including a basal medium containing 0.5% BSA. The upper chamber wells were each filled with a basal medium including 0.5% BSA. The Transwell chamber was incubated for 12 hours in a 37° C./5% CO2 incubator. After the incubation, the non-migrating cells at the top of the filter were removed. The cells that migrated onto the bottom of filter were fixed and stained with 0.6% hematoxylin and 0.5% eosin. The stained cells were photographed and counted. The number of migrating cells was averaged from 3 wells.

CN1C(=O)[C@]23CC4=CC=C[C@H](O)[C@H]4N2C(=O)[C@@]1(CO)SS3 [gliotoxin]
endothelial repair / reendothelialization (CD31 immunofluorescence) ([1]; local administration after balloon injury): endothelium monolayer in contact with lumen was formed
intimal hyperplasia (ratio of intima versus media, HE staining) ([1]; local administration to the lumen through catheter, 30 minutes, ETP derivatives 200 nM, 10 days recovery): notably suppressed
cell death by TUNEL staining ([1]; nanomolar range, local administration): did not induce cell death
luminal surface endothelial cells by scanning electron microscopy ([1]; rat, in vivo): spread and formed a uniform layer with tight junction
overoxidation of 2-Cys-Prx (Prx-SO2/3 immunohistochemistry) versus control group ([1]; rat, in vivo): no significant differences
VEGF-induced proliferation and chemotactic transmigration of HAECs, impaired by PrxII knockdown [2]: enhancement
proliferation and migration responding to serum stimulation, SK5 [3]: reduced
